Results taken from patent US11459327B1, “Cycloalkyl and hetero-cycloalkyl inhibitors, preparation methods therefor, and use thereof” (Suzhou Zelgen Biopharmaceuticals Co., Ltd., priority 2019, dated 2022).
pIC50: −log10 of the molar value.

Legend:
[1] = tested on: A549(KRAS^G12S mutation) cells; assay: Cell assay of antiproliferative activity (Celltiter-Glo, 5 days) against A549 cells; assay type: cell-based; conditions: Homo sapiens, 120 h, 5 days incubation
Experimental: (§1) Cell assay of antiproliferative activity of compounds against NCI-H358(KRAS^G12C mutation) and A549(KRAS^G12S mutation) cells.
(§2) 40 μl phosphate buffer was added to the outer wells of the 384 microplate, and 40 μl cell suspension to be tested was added to the other wells. Then the microplate was incubated in a carbon dioxide incubator overnight.
(§3) The compounds to be tested were gradiently diluted, each compound was performed 10 concentration gradients (diluted from 50 μM to 0.003 μM) and added 100 nL to the corresponding wells in the microplate. After addition, 40 μl of phosphate buffer was added to each well in rows A and P and columns 1 and 24, and then the microplate was incubated in a carbon dioxide incubator for 5 days.
(§4) 20 μL of Promega Celltiter-Glo reagent was added to each well of the microplate, and then the luminescence signal was stabilized by oscillating at room temperature for 10 min. Then PekinElmer Envision multi-label analyzer was used to read.
(§5) Finally, GraphPad Prism software was used to calculate the IC50 value of the compound and the fitting curve was drawn.
(§6) Anti-proliferative activity of the compounds of the present invention against NCI-H358(KRAS^G12C mutation) and A549(KRAS^G12S mutation) cells were shown in Table 1.

[2] = tested on: NCI-H358(KRAS^G12C mutation) cells; assay: Cell assay of antiproliferative activity (Celltiter-Glo, 5 days) against NCI-H358 cells; assay type: cell-based; conditions: 5 days incubation
Experimental: as §1, §2, §3, §4, §5, §6

## C=CC(=O)N1CCN(c2nc(OCCN(C)[C@@H](C)C3CC3)nc3c2CCN(c2cccc4cccc(C)c24)C3)CC1CC#N (stereo partly shown) [Example 78]
[1]
  pIC50: 5.55
[2]; Homo sapiens, NCI-H358, 120 h
  pIC50: 7.30

## C=CC(=O)N1CCN(c2nc(OCCN(C)CC3CC3(F)F)nc3c2CCN(c2cccc4cccc(Cl)c24)C3)CC1CC#N (stereo not shown) [Example 6]
[1]
  pIC50: 5.00
[2]; Homo sapiens, NCI-H358, 120 h
  pIC50: 6.96

## C=CC(=O)N1CCN(c2nc(OCCN(CC(F)(F)F)C3CCC3)nc3c2CCN(c2cccc4cccc(Cl)c24)C3)CC1CC#N (stereo not shown) [Example 10, 2-(1-acroloyl-4-(7-(8-chloronaphthalen-1-yl)-2-(2-(cyclobutyl(2,2,2-trifluoroethyl)amino)ethoxy)-5,6,7,8-tetrahydropyrido[3,4-d]pyrimidin-4-yl)piperazin-2-yl) acetonitrile]
[1]
  pIC50: 4.76
[2]; Homo sapiens, NCI-H358, 120 h
  pIC50: 5.19

## C=CC(=O)N1CCN(c2nc(OCCN(C)CC3CC3)nc3c2CCN(c2cccc4cccc(C)c24)C3)CC1CC#N (stereo not shown) [Example 73]
[1]
  pIC50: 5.43
[2]; Homo sapiens, NCI-H358, 120 h
  pIC50: 7.22

## C=C(F)C(=O)N1CCN(c2nc(OCCN(C)C3CCC3)nc3c2CCN(c2cccc4ccc(F)c(C)c24)C3)CC1CC#N (stereo not shown) [Example 22, 2-(4-(2-(2-(cyclobutyl(methyl)amino)ethyoxyl)-7-(7-fluoro-8-methylnaphthalen-1-yl)-5,6,7,8-tetrahydropyrido[3,4-d]pyrimidin-4-yl)-1-(2-fluoroacroloyl)piperazin-2-yl) acetonitrile]
[1]
  pIC50: 5.66
[2]; Homo sapiens, NCI-H358, 120 h
  pIC50: 7.04

## C=CC(=O)N1CCN(c2nc(OCCN(C)C3CCC3)nc3c2CCN(c2cccc4ccc(F)c(C)c24)C3)CC1CC#N (stereo not shown) [Example 21, 2-(1-acroloyl-4-(2-(2-(cyclobutyl(methyl)amino)ethyoxyl)-7-(7-fluoro-8-methylnaphthalen-1-yl)-5,6,7,8-tetrahydropyrido[3,4-d]pyrimidin-4-yl)piperazin-2-yl) acetonitrile]
[1]
  pIC50: 5.11
[2]; Homo sapiens, NCI-H358, 120 h
  pIC50: 7.57

## C=CC(=O)N1CCN(c2nc(OC[C@@H](C)N(C)C3CC3)nc3c2CCN(c2cccc4cccc(C)c24)C3)CC1CC#N (stereo partly drawn) [Example 72, 2-(1-acroloyl-4-(2-((R)-2-(cyclopropyl(methyl)amino)propoxy)-7-(8-methylnaphthalen-1-yl)-5,6,7,8-tetrahydropyrido[3,4-d]pyrimidin-4-yl)piperazin-2-yl) acetonitrile]
[1]
  pIC50: 4.97
[2]; Homo sapiens, NCI-H358, 120 h
  pIC50: 6.74

## C=C(F)C(=O)N1CCN(c2nc(OCCN(C)C3(C)CCC3)nc3c2CCN(c2cccc4ccc(F)c(Cl)c24)C3)CC1CC#N (stereo not shown) [Example 33, 2-(4-(7-(8-chloro-7-fluoronaphthalen-1-yl)-2-(2-(methyl(1-methylcyclobutyl)amino)ethoxy)-5,6,7,8-tetrahydropyrido[3,4-d]pyrimidin-4-yl)-1-(2-fluoroacroloyl)piperazin-2-yl) acetonitrile]
[2]; Homo sapiens, NCI-H358, 120 h
  pIC50: 7.18

## C=CC(=O)N1CCN(c2nc(OCC3(CN(C)C)CC3)nc3c2CC(C)N(c2cccc4cccc(Cl)c24)C3)CC1CC#N (single isomer, unassigned) [Example 29B, 2-(1-acroloyl-4-(7-(8-chloronaphthalen-1-yl)-2-((1-((dimethylamino)methyl)cyclopropyl)methoxyl)-6-methyl-5,6,7,8-tetrahydropyrido [3,4-d]pyrimidin-4-yl)piperazin-2-yl) acetonitrile]
[2]
  pIC50: 7.28

## C=CC(=O)N1CCN(c2nc(OCC3(CN(C)C4CC4)COC3)nc3c2CCN(c2cccc4cccc(Cl)c24)C3)CC1CC#N (stereo not shown) [Example 32, 2-(1-acroloyl-4-(7-(8-chloronaphthalen-1-yl)-2-((3-((cyclopropyl(methyl)amino)methyl)oxetan-3-yl)methoxyl)-5,6,7,8-tetrahydropyrido[3,4-d]pyrimidin-4-yl)piperazin-2-yl) acetonitrile]
[2]; Homo sapiens, NCI-H358, 120 h
  pIC50: 6.92

## C=CC(=O)N1CC2CN(c3nc(OCC4(CN(C)C)CC4)nc4c3CCN(c3cccc5cccc(Cl)c35)C4)CC2C1 (stereo not shown) [Example 38, 1-(5-(7-(8-chloronaphthalen-1-yl)-2-((1-((dimethylamino)methyl)cyclopropyl)methoxyl)-5,6,7,8-tetrahydropyrido[3,4-d]pyrimidin-4-yl)hexahydropyrrolo[3,4-c]pyrrole-2(1H)-yl)prop-2-ene-1-one]
[2]; Homo sapiens, NCI-H358, 120 h
  pIC50: 5.31

## C=C(F)C(=O)N1CCN(c2nc(OCC3(CN4CC(O)C4)CC3)nc3c2CCN(c2cccc4ccc(F)c(Cl)c24)C3)C[C@@H]1CC#N [Example 68, (S)-2-(4-(7-(8-chloro-7-fluoronaphthalen-1-yl)-2-((1-((3-hydroxyazetidin-1-yl)methyl)cyclopropyl)methoxy)-5,6,7,8-tetrahydropyrido [3,4-d]pyrimidin-4-yl)-1-(2-fluoroacroloyl)piperazin-2-yl) acetonitrile]
[2]; Homo sapiens, NCI-H358, 120 h
  pIC50: 7.07

## C=CC(=O)N1CCN(c2nc(OCC3(CN(C)C)CC3)nc3c2CC(C)N(c2cccc4cccc(Cl)c24)C3)CC1CC#N (single isomer, unassigned) [Example 29D, 2-(1-acroloyl-4-(7-(8-chloronaphthalen-1-yl)-2-((1-((dimethylamino)methyl)cyclopropyl)methoxyl)-6-methyl-5,6,7,8-tetrahydropyrido [3,4-d]pyrimidin-4-yl)piperazin-2-yl) acetonitrile]
[2]
  pIC50: 8.22

## CC#CC(=O)N1CCN(c2nc(OCC3(CN(C)C)CC3)nc3c2CCN(c2cccc4cccc(Cl)c24)C3)C[C@@H]1CC#N [Example 49, (S)-2-(1-(but-2-ynoyl)-4-(7-(8-chloronaphthalen-1-yl)-2-((1-((dimethylamino)methyl)cyclopropyl)methoxyl)-5,6,7,8-tetrahydropyrido[3,4-d]pyrimidin-4-yl)piperazin-2-yl) acetonitrile]
[2]; Homo sapiens, NCI-H358, 120 h
  pIC50: 7.37

## C=C(F)C(=O)N1CCN(c2nc(OCC3(CN(C)C)CC3)nc3c2CCN(c2c(C)ccc4[nH]ncc24)C3)C[C@@H]1CC#N [Example 35]
[2]; Homo sapiens, NCI-H358, 120 h
  pIC50: 6.51

## C=C(F)C(=O)N1CCN(c2nc(OCC3(CN(C)C)CC3)nc3c2C[C@H](C)N(c2cccc4ccc(F)c(Cl)c24)C3)C[C@@H]1CC#N [Example 96A, 2-((S)-4-((S)-7-(8-chloro-7-fluoronaphthalen-1-yl)-2-((1-((dimethylamino)methyl)cyclopropyl)methoxy)-6-methyl-5,6,7,8-tetrahydropyrido[3,4-d]pyrimidin-4-yl)-1-(2-fluoroacroloyl)piperazin-2-yl) acetonitrile]
[2]
  pIC50: 6.72

## C=C(F)C(=O)N1CCN(c2nc(OCC3(CN4CCC4)CC3)nc3c2CCN(c2cccc4ccc(F)c(Cl)c24)C3)C[C@@H]1CC#N [Example 58, (S)-2-(4-(2-((1-(azetidin-1-ylmethyl)cyclopropyl)methoxy)-7-(8-chloro-7-fluoronaphthalen-1-yl)-5,6,7,8-tetrahydropyrido[3,4-d]pyrimidin-4-yl)-1-(2-fluoroacroloyl)piperazin-2-yl) acetonitrile]
[2]; Homo sapiens, NCI-H358, 120 h
  pIC50: 7.19

## C=C(F)C(=O)N1CCN(c2nc(OCC3(C(C)N(C)C)CC3)nc3c2CCN(c2cccc4cccc(Cl)c24)C3)C[C@@H]1CC#N (stereo partly drawn) [Example 47B, 2-((2S)-4-(7-(8-chloronaphthalen-1-yl)-2-((1-(1-(dimethylamino)ethyl)cyclopropyl)methoxy)-5,6,7,8-tetrahydropyrido[3,4-d]pyrimidin-4-yl)-1-(2-fluoroacroloyl)piperazin-2-yl) acetonitrile]
[2]
  pIC50: 7.15
